Earlier results, collected in US20110301091A1, “COMPOSITIONS AND METHODS FOR REDUCING THE SIGNS OF AGING OF THE SKIN” (priority 2008, published 2011).

Assays:
skin characteristics = conditions: in vivo
photoaged skin = conditions: topical application
[1] = tested on: UV-irradiated human fibroblasts
photoaging = conditions: topical application of folic acid and creatine
dermal aging = conditions: animal studies; mechanism of reducing oxidative stress and apoptosis
[2] = tested on: heparan-sulfate PGs (HS-PGs); conditions: organotypical model of corticosteroid atrophic human skin
MMP-1 = conditions: human keratinocytes; via ERK and AP-1 inhibition
[3] = tested on: UV-induced ceramide production; conditions: free radical scavenger
wrinkle formation = conditions: clinical study

C[C@]12CC[C@H](O)CC1=CC[C@@H]1[C@@H]2CC[C@]2(C)C(=O)CC[C@@H]12 [Dehydroepiandrosterone (DHEA), Dehydroepiandrosterone]
effects on skin characteristics (skin characteristics): beneficial effects on skin characteristics

CCCCCCCC(=O)C(CCCCCC)C(=O)NC(CO)CO (stereo not drawn) [K6PC-5]
skin barrier, fibroblast count and function (photoaged skin): improving skin barrier and increasing fibroblast count and function

COc1cc(O)c(C(=O)[C@@H]2[C@H](CC=C(C)C)C(C)=CC[C@H]2c2ccccc2)c(O)c1 [Panduratin A]
matrix metalloproteinase (MMP) I synthesis [1]: decreased | type I procollagen synthesis [1]: increased

Oc1ccc(C=Cc2cc(O)cc(O)c2)cc1 [Resveratrol]
aging and lifespan (laboratory animals): slow down aging and extend the lifespan

CN(CC(=O)O)C(=N)N [creatine]
photoaging (photoaging): improved photoaging

Nc1nc2ncc(CNc3ccc(C(=O)N[C@@H](CCC(=O)O)C(=O)O)cc3)nc2c(=O)[nH]1 [folic acid]
photoaging (photoaging): improved photoaging

COc1ccc2[nH]cc(CCNC(C)=O)c2c1 [melatonin]
dermal aging (dermal aging): slow down dermal aging

C-Xyloside
expression of heparan-sulfate PGs (HS-PGs) [2]: improved expression of heparan-sulfate PGs

Triphlorethol-A
MMP-1 inhibition (MMP-1): inhibition of MMP-1

Vitamin E
UV-induced ceramide production [3]: inhibited

Ziyuglycoside
wrinkle formation (wrinkle formation): decrease wrinkle formation | expression of type I collagen (type I collagen): increased the expression of type I collagen in a dose-dependent manner

growth hormone
dermal aging (dermal aging): slow down dermal aging

lunasin
epigenetic patterns (epigenetic patterns): modify epigenetic patterns
